From ChEMBL document CHEMBL3608207, “Synthesis, characterization, evaluation and molecular dynamics studies of 5, 6-diphenyl-1,2,4-triazin-3(2H)-one derivatives bearing 5-substituted 1,3,4-oxadiazole as potential anti-inflammatory and analgesic agents” (Eur J Med Chem, 2015)

Columns and labels:
[1] = In-vitro anti-inflammatory activity assessed as inhibition of denaturation of bovine serum albumin at equimolar dose relative to 10 mg indomethacin; assay type: functional
[2] = test system: Rattus norvegicus; test: Toxicity in healthy albino rat assessed as induction of sleep up to 500 mg/kg, po; assay type: organism-based; conditions: in vivo
[3] = test system: Rattus norvegicus; test: Anti-inflammatory activity in rat model of acute inflammation assessed as inhibition of carrageenan-induced paw oedema dosed at equimolar oral dose relative to 10 mg/kg, po indomethacin dosed 1 hr before carrageenan injection and measured 5 hrs after carrageenan injection; assay type: functional
[4] = test system: Rattus norvegicus; test: Toxicity in healthy albino rat assessed as induction of lethargy up to 500 mg/kg, po; assay type: organism-based; conditions: in vivo
[5] = test system: Rattus norvegicus; test: Toxicity in healthy albino rat assessed as induction of salivation up to 500 mg/kg, po; assay type: organism-based; conditions: in vivo
[6] = test system: Rattus norvegicus; test: Anti-inflammatory activity in rat model of acute inflammation assessed as inhibition of carrageenan-induced paw oedema dosed at equimolar oral dose relative to 10 mg/kg, po indomethacin dosed 1 hr before carrageenan injection and measured 6 hrs after carrageenan injection; assay type: functional
[7] = test system: Rattus norvegicus; test: Anti-inflammatory activity in rat model of acute inflammation assessed as inhibition of carrageenan-induced paw oedema dosed at equimolar oral dose relative to 10 mg/kg, po indomethacin dosed 1 hr before carrageenan injection and measured 2 hrs after carrageenan injection; assay type: functional
[8] = test system: Rattus norvegicus; test: Toxicity in healthy albino rat assessed as induction of convulsion up to 500 mg/kg, po; assay type: organism-based; conditions: in vivo
[9] = test system: Rattus norvegicus; test: Toxicity in healthy albino rat assessed as induction of tremors up to 500 mg/kg, po; assay type: organism-based; conditions: in vivo
[10] = test system: Rattus norvegicus; test: Toxicity in healthy albino rat assessed as induction of mortality at 500 mg/kg, po measured after 14 days; assay type: organism-based; conditions: in vivo, 336 h
[11] = test system: Rattus norvegicus; test: Toxicity in healthy albino rat assessed as induction of diarrhoea up to 500 mg/kg, po; assay type: organism-based; conditions: in vivo
[12] = test system: Rattus norvegicus; test: Toxicity in healthy albino rat assessed as induction of coma up to 500 mg/kg, po; assay type: organism-based; conditions: in vivo
[13] = test system: Rattus norvegicus; test: Anti-inflammatory activity in rat model of acute inflammation assessed as inhibition of carrageenan-induced paw oedema dosed at equimolar oral dose relative to 10 mg/kg, po indomethacin dosed 1 hr before carrageenan injection and measured 4 hrs after carrageenan injection; assay type: functional
[14] = test system: Rattus norvegicus; test: Toxicity in healthy albino rat assessed as induction of changes in autonomic or behavioural responses up to 500 mg/kg, po; assay type: organism-based; conditions: in vivo
[15] = test system: Rattus norvegicus; test: Anti-inflammatory activity in rat model of acute inflammation assessed as inhibition of carrageenan-induced paw oedema dosed at equimolar oral dose relative to 10 mg/kg, po indomethacin dosed 1 hr before carrageenan injection and measured 5 hrs after carrageenan injection relative to 10 mg/kg, po indomethacin; assay type: functional
[16] = Octanol/water partition coefficient, log P of the compound by shake flask method; assay type: physicochemical
[17] = test system: Rattus norvegicus; test: Anti-inflammatory activity in rat model of acute inflammation assessed as inhibition of carrageenan-induced paw oedema dosed at equimolar oral dose relative to 10 mg/kg, po indomethacin dosed 1 hr before carrageenan injection and measured 3 hrs after carrageenan injection; assay type: functional
[18] = test system: Rattus norvegicus; test: Anti-inflammatory activity in rat model of acute inflammation assessed as inhibition of carrageenan-induced paw oedema dosed at equimolar oral dose relative to 10 mg/kg, po indomethacin dosed 1 hr before carrageenan injection and measured 1 hr after carrageenan injection; assay type: functional
[19] = Retardation factor of the compound; assay type: physicochemical
[20] = test system: Rattus norvegicus; test: Anti-inflammatory activity in rat assessed as inhibition of arachidonic acid-induced paw edema at 10 mg/kg, po dosed 30 mins before arachidonic acid injection and measured 1 hr after arachidonic acid injection; assay type: functional
[21] = test system: Mus musculus; test: Analgesic activity in Swiss albino mouse assessed as reduction in formalin-induced paw licking by measuring time spent on licking during phase-2 at 10 mg/kg, po dosed 1 hr before formalin challenge and measured 30 mins after formalin injection; assay type: functional
[22] = test system: Mus musculus; test: Analgesic activity in Swiss albino mouse assessed as reduction in formalin-induced paw licking by measuring time spent on licking during phase-1 at 10 mg/kg, po dosed 1 hr before formalin challenge and measured 30 mins after formalin injection; assay type: functional

`NNC(=O)Cn1nc(-c2ccccc2)c(-c2ccccc2)nc1=O` gave an inhibition [1] of 38.3%.

In the case of `CCOC(=O)Cn1nc(-c2ccccc2)c(-c2ccccc2)nc1=O`, the inhibition [1] is reported as 35.7%.

For `O=c1nc(-c2ccccc2)c(-c2ccccc2)nn1Cc1nnc(-c2ccc(Cl)cc2Cl)o1`, the Activity [2] was “Non-toxic”, the “inhibition (INH)” value [3] was 38.31% and the Activity [4] was “Non-toxic”. The Activity [5] was “Non-toxic”, the “inhibition (INH)” value [6] was 35.42% and the “inhibition (INH)” value [7] was 28.44%. For the same compound, the Activity [8] was “Non-toxic”, the Activity [9] was “Non-toxic” and the Activity [10] was “Non-toxic”. For the same compound, the Activity [11] was “Non-toxic”, the Activity [12] was “Non-toxic” and the “inhibition (INH)” value [13] was 34.8%. The Activity [14] was “Non-toxic”, the “inhibition (INH)” value [15] was 61.16% and the logP [16] was 4.45. For the same compound, the “inhibition (INH)” value [17] was 31.23%, the “inhibition (INH)” value [18] was 12.01% and the Rf [19] was 0.51. The inhibition [1] was 67.7%.

`O=c1nc(-c2ccccc2)c(-c2ccccc2)nn1Cc1nnc(-c2ccncc2)o1` showed a logP [16] of 3.67, a Rf [19] of 0.43 and an inhibition [1] of 47.9%.

With `Cc1ccccc1-c1nnc(Cn2nc(-c3ccccc3)c(-c3ccccc3)nc2=O)o1` the logP [16] was 3.81, the Rf [19] was 0.36 and the inhibition [1] was 53.7%.

In the case of `O=c1nc(-c2ccccc2)c(-c2ccccc2)nn1Cc1nnc(Oc2ccc(Cl)cc2Cl)o1`, the Activity [2] is reported as “Non-toxic”, the “inhibition (INH)” value [3] is reported as 47.14% and the Activity [4] is reported as “Non-toxic”. The Activity [5] was “Non-toxic”, the “inhibition (INH)” value [6] was 44.89% and the “inhibition (INH)” value [7] was 34.87%. For the same compound, the Activity [8] was “Non-toxic”, the Activity [9] was “Non-toxic” and the Activity [10] was “Non-toxic”. The Activity [11] was “Non-toxic”, the Activity [12] was “Non-toxic” and the “inhibition (INH)” value [13] was 45.24%. For the same compound, the Activity [14] was “Non-toxic”, the “inhibition (INH)” value [15] was 75.25% and the logP [16] was 4.4. The “inhibition (INH)” value [17] was 42.02%, the “inhibition (INH)” value [18] was 15.59% and the Rf [19] was 0.47. For the same compound, the inhibition [1] was 72.7%.

For `O=c1nc(-c2ccccc2)c(-c2ccccc2)nn1Cc1nnc(-c2ccccc2[N+](=O)[O-])o1`, the Activity [2] was “Non-toxic”, the “inhibition (INH)” value [3] was 41.29% and the Activity [4] was “Non-toxic”. For the same compound, the Activity [5] was “Non-toxic”, the “inhibition (INH)” value [6] was 39% and the “inhibition (INH)” value [7] was 30.7%. The Activity [8] was “Non-toxic”, the Activity [9] was “Non-toxic” and the Activity [10] was “Non-toxic”. The Activity [11] was “Non-toxic”, the Activity [12] was “Non-toxic” and the “inhibition (INH)” value [13] was 38.75%. The Activity [14] was “Non-toxic”, the “inhibition (INH)” value [15] was 65.92% and the logP [16] was 3.64. For the same compound, the “inhibition (INH)” value [17] was 36.39%, the “inhibition (INH)” value [18] was 12.12% and the Rf [19] was 0.35. For the same compound, the inhibition [1] was 70.1%.

`Oc1nnc(-c2ccccc2)c(-c2ccccc2)n1` showed an inhibition [1] of 30.7%.

For `CC(c1cc2ccccc2s1)N(O)C(N)=O` (centres undefined) [ZILEUTON], the inhibition in vivo at 10 mg/kg [20] was 67.4%.

`COc1cccc(-c2nnc(Cn3nc(-c4ccccc4)c(-c4ccccc4)nc3=O)o2)c1` showed a logP [16] of 3.47, a Rf [19] of 0.38 and an inhibition [1] of 62.7%.

Compound `O=c1nc(-c2ccccc2)c(-c2ccccc2)nn1Cc1nnc(-c2ccccc2)o1` has a logP [16] of 3.54, a Rf [19] of 0.4 and an inhibition [1] of 50.3%.

`N#Cc1cccc(-c2nnc(Cn3nc(-c4ccccc4)c(-c4ccccc4)nc3=O)o2)c1` showed a logP [16] of 3.74, a Rf [19] of 0.45 and an inhibition [1] of 62.3%.

Work on `Cc1ccc(-c2nnc(Cn3nc(-c4ccccc4)c(-c4ccccc4)nc3=O)o2)cc1` yielded a logP [16] of 3.73, a Rf [19] of 0.34 and an inhibition [1] of 50.3%.

With `CC(C)=CCN1CC[C@]2(C)c3cc(O)ccc3C[C@H]1[C@H]2C` [(+)-PENTAZOCINE] the inhibition in vivo at 10 mg/kg [21] was 90.2% and the inhibition in vivo at 10 mg/kg [22] was 88.9%.

Work on `O=c1nc(-c2ccccc2)c(-c2ccccc2)nn1Cc1nnc(-c2cccc(Cl)c2)o1` yielded a logP [16] of 3.82, a Rf [19] of 0.45 and an inhibition [1] of 64.4%.
